According to patent US7816338B2, “Compositions and methods for inhibiting car gene expression by RNA interference” (Sumitomo Chemical Company, Limited, priority 2007, dated 2010):

Columns and labels:
[1] = system: CYP2B dependent pentoxyresorufin O-depentylation activity; assay: CYP2B dependent PROD (pentoxyresorufin O-depentylation activity) in hepatocytes (Example 6); format: cell-based, rat; details: PB and control siRNA (Cont) treatment; 72 hours after siRNA
Description: Then, the culture medium is replaced with 2 mL of William's culture medium containing 7 μM of 7-pentoxyresorufin and 7 μM of dicumarol. The culture medium is incubated at 37° C. for 4 hours, and then the culture medium is recovered. The cells are mixed with 1000 U of β-glucronidase (bovine liver-derived) and 50 mM of sodium acetate solution (pH 5), which is left at 37° C. for 3 hours. Measurement of pentoxyresorufin O-depentylation activity is performed by measuring the amount of fluorescence per unit solution. Further, the measurement is carried out at an excitation wavelength of 530 nm and a fluorescence wavelength of 585 nm using a fluorophotometer (F-4010, manufactured by Hitachi). In evaluation of the results, the total amount of protein in the cells in which the substrate was treated is measured by the Protein assay kit (Bio-Rad) and the production amount of resorufin per unit protein (amount of pentoxyresorufin O-depentylation) is calculated on the basis of the calibration curve of resorufin. […] As a result, pentoxyresorufin O-depentylation activity is enhanced by PB and control siRNA (Cont) treatment as compared to the case of the untreated cells.

[2] = system: liver; assay: Liver wet weight in rats (Example 10); format: in vivo, rat; details: group treated with PB and control siRNA (Cont)
Description: (§1) The wet weight of the liver in the rats to which siRNA (CAR) or control siRNA (Cont) was administered by the methods described in (1) to (3) of Example 2 is measured by the method described in (5) of Example 2. As a result, the liver weight is increased in the group treated with PB and control siRNA (Cont) as compared to the case of the untreated animal group.

[3] = system: liver; assay: Centrilobular cell hypertrophy, histopathological examination of the liver (Example 11); format: in vivo, rat; details: rats; group treated with PB and control siRNA (Cont)
Description: as §1, with “Histopathological examination” for “The wet weight”, “performed” for “measured”, “centrilobular cell hypertrophy” for “the liver weight”

[4] = system: CYP2B1 mRNA; assay: CYP2B1 gene expression in PB-treated primary hepatocyte cultured cells (Example 5 (3))

CCC1(c2ccccc2)C(=O)NC(=O)NC1=O [PB, Phenobarbital]
pentoxyresorufin O-depentylation activity as compared to the untreated cells [1]: enhanced
liver weight as compared to the untreated animal group [2]: increased
centrilobular cell hypertrophy as compared to the untreated animal group [3]: increased
CYP2B1 mRNA expression increase compared to cells untreated with PB ([4]; cells treated with PB (50 nM) and control siRNA(Cont)): about fivefold
CYP2B1 expression increase by PB treatment compared to cells untreated with compound ([4]; cells which inhibited CAR (siRNA(CAR)), PB 50 nM): about twofold
